From PubChem BioAssay AID328 (DTP/NCI, 2004)
Inconclusive results and toxic doses are left out.

Test system: BDF1 mice, P388 leukemia ip, median survival T/C
Assay: NCI In Vivo Anticancer Drug Screen. Data for tumor model P388 Leukemia (intraperitoneal) in B6D2F1 (BDF1) mice
Conditions: endpoint: median survival time, higher = longer survival
In short: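 Transplantable tumour in mice; compound vs vehicle dosing; survival scored; ratio of treated to control reported.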

[1] = dose: 50.0 mg/kg/injection, schedule: Q01DX009 (ip), vehicle: saline with Tween-80
[2] = dose: 50.0 mg/kg/injection, schedule: Q01DX009 (ip), vehicle: saline
[3] = dose: 100.0 mg/kg/injection, schedule: Q01DX009 (ip), vehicle: Klucel (hydroxypropylcellulose) (HPC)
[4] = dose: 100.0 mg/kg/injection, schedule: Q01DX009 (ip), vehicle: saline
[5] = dose: 100.0 mg/kg/injection, schedule: Q01DX009 (ip), vehicle: saline with Tween-80
[6] = dose: 200.0 mg/kg/injection, schedule: Q01DX009 (ip), vehicle: saline with Tween-80

Structure (SMILES): COc1cccc(Sc2ccc([N+](=O)[O-])c3nonc23)c1
- T/C (dose: 12.5 mg/kg/injection, schedule: Q01DX009 (ip), vehicle: saline with Tween-80): 102 % of control
- T/C (dose: 25.0 mg/kg/injection, schedule: Q01DX009 (ip), vehicle: saline with Tween-80): 107 % of control

Structure (SMILES): O=[N+]([O-])c1ccc(NS(=O)(=O)c2cccs2)c([N+](=O)[O-])c1
- T/C [1]: 96 % of control

Structure (SMILES): CCOC(=O)C(NC(C)=O)(C(=O)OCC)C(C)C(=O)c1ccc(OC)c(OC)c1OCc1ccccc1 (stereo not given)
- T/C (dose: 12.5 mg/kg/injection, schedule: Q01DX009 (ip), vehicle: saline): 101 % of control
- T/C (dose: 25.0 mg/kg/injection, schedule: Q01DX009 (ip), vehicle: saline): 111 % of control
- T/C [2]: 92 % of control
- T/C (dose: 200.0 mg/kg/injection, schedule: Q01DX009 (ip), vehicle: saline): 101 % of control

Structure (SMILES): CC(C)(C)C(=O)CC(=O)C(F)(F)C(F)(F)C(F)(F)F.CC(C)(C)C(=O)CC(=O)C(F)(F)C(F)(F)C(F)(F)F.CC(C)(C)C(=O)CC(=O)C(F)(F)C(F)(F)C(F)(F)F.[Fe]
- T/C [3]: 97 % of control
- T/C (dose: 200.0 mg/kg/injection, schedule: Q01DX009 (ip), vehicle: Klucel (hydroxypropylcellulose) (HPC)): 114 % of control
- T/C (dose: 400.0 mg/kg/injection, schedule: Q01DX009 (ip), vehicle: Klucel (hydroxypropylcellulose) (HPC)): 97 % of control

Structure (SMILES): Nc1nc2ccccc2[nH]1
- T/C [2]: 105 % of control
- T/C [4]: 102 % of control

Structure (SMILES): CCCCOCN1COCC1(C)C
- T/C (dose: 50.0 mg/kg/injection, schedule: Q04DX003 (ip), vehicle: saline): 100 % of control
- T/C (dose: 100.0 mg/kg/injection, schedule: Q04DX003 (ip), vehicle: saline): 105 % of control

Structure (SMILES): O=c1[nH]nc(NCCCO)c2ccccc12
- T/C [1]: 112 % of control
- T/C [5]: 87 % of control
- T/C [6]: 96 % of control

Structure (SMILES): CC1=NNC(=O)C1
- T/C (dose: 100.0 mg/kg/injection, schedule: Q01DX001 (ip), vehicle: saline sonified): 100 % of control
- T/C (dose: 200.0 mg/kg/injection, schedule: Q01DX001 (ip), vehicle: saline sonified): 100 % of control
- T/C (dose: 400.0 mg/kg/injection, schedule: Q01DX001 (ip), vehicle: saline sonified): 105 % of control

Structure (SMILES): O=C(Oc1ccc(-c2ccc(Br)cc2)cc1)c1ccco1
- T/C [1]: 90 % of control
- T/C [5]: 90 % of control

Structure (SMILES): CC(C)CN1CC(=O)N2CCCN2C(=O)C1
- T/C (dose: 50.0 mg/kg/injection, schedule: Q01DX005 (ip), vehicle: saline): 94 % of control
- T/C (dose: 100.0 mg/kg/injection, schedule: Q01DX005 (ip), vehicle: saline): 108 % of control
- T/C (dose: 200.0 mg/kg/injection, schedule: Q01DX005 (ip), vehicle: saline): 103 % of control

Structure (SMILES): Nc1nc(CNc2ccccc2)nc(Nc2ccccc2)n1
- T/C (dose: 50.0 mg/kg/injection, schedule: Q04DX003 (ip), vehicle: saline sonified): 100 % of control
- T/C (dose: 100.0 mg/kg/injection, schedule: Q04DX003 (ip), vehicle: saline sonified): 100 % of control
- T/C (dose: 200.0 mg/kg/injection, schedule: Q04DX003 (ip), vehicle: saline sonified): 105 % of control

Structure (SMILES): C[C@H]1C[C@@H]2[C@H]([C@@H](O)C[C@@]3(C)[C@H]2CC[C@]3(O)C(=O)CO)[C@@]2(C)C=CC(=O)C=C12
- T/C [6]: 104 % of control
- T/C (dose: 400.0 mg/kg/injection, schedule: Q01DX009 (ip), vehicle: saline with Tween-80): 90 % of control

Structure (SMILES): COC(=O)/C=C1\Sc2ccc(Cl)cc2NC1=O
- T/C [1]: 93 % of control
- T/C [5]: 86 % of control
- T/C [6]: 93 % of control

Structure (SMILES): CC(/C=N/N=C(N)N)=N/N=C(N)N
- T/C [4]: 150 % of control
- T/C (dose: 150.0 mg/kg/injection, schedule: Q01DX009 (ip), vehicle: saline with Tween-80): 90 % of control

Structure (SMILES): CC1(C)C2CCC1(C)C(OC(=O)c1ccc([N+](=O)[O-])cc1)C2OC(=O)c1ccc([N+](=O)[O-])cc1 (stereo not given)
- T/C (dose: 75.0 mg/kg/injection, schedule: Q04DX003 (ip), vehicle: other): 100 % of control
- T/C (dose: 150.0 mg/kg/injection, schedule: Q04DX003 (ip), vehicle: other): 91 % of control
- T/C (dose: 300.0 mg/kg/injection, schedule: Q04DX003 (ip), vehicle: other): 91 % of control

Structure (SMILES): CCN(C(=O)C(F)(F)F)C(C)(C)C(SSSC(c1ccc(Cl)cc1)C(C)(C)N(CC)C(=O)C(F)(F)F)c1ccc(Cl)cc1 (stereo not given)
- T/C (dose: 22.0 mg/kg/injection, schedule: Q01DX009 (ip), vehicle: Klucel (hydroxypropylcellulose) (HPC)): 115 % of control
- T/C (dose: 33.0 mg/kg/injection, schedule: Q01DX009 (ip), vehicle: Klucel (hydroxypropylcellulose) (HPC)): 115 % of control
- T/C (dose: 50.0 mg/kg/injection, schedule: Q01DX009 (ip), vehicle: Klucel (hydroxypropylcellulose) (HPC)): 120 % of control
- T/C (dose: 75.0 mg/kg/injection, schedule: Q01DX009 (ip), vehicle: Klucel (hydroxypropylcellulose) (HPC)): 120 % of control
- T/C [3]: 100 % of control
- T/C (dose: 100.0 mg/kg/injection, schedule: Q04DX003 (ip), vehicle: Klucel (hydroxypropylcellulose) (HPC)): 112 % of control
- T/C (dose: 200.0 mg/kg/injection, schedule: Q04DX003 (ip), vehicle: Klucel (hydroxypropylcellulose) (HPC)): 116 % of control
